Literature values as cited in patent US7335651B2, “Compositions incorporating(-)-hydroxycitric acid and related methods for promoting fat oxidation” (Interhealth Nutraceuticals Incorporated, priority 2001, dated 2008).
Where two headings read alike, the source gives them in different places.

Tests used:
[1] = tested on: DNA
[2] = tested on: young obese women; details: eight weeks
[3] = tested on: growing rats; details: thirty days
[4] = tested on: liver lipogenesis; details: rats; acute oral dose 2.63 mmoles/kg (roughly 594 mg/kg) before a standardized synthetic meal; up to 8 hours after the meal
[5] = target: T1, ATP-citrate lyase (Homo sapiens, UniProt P53396)
T1 sequence (P53396 1-1101): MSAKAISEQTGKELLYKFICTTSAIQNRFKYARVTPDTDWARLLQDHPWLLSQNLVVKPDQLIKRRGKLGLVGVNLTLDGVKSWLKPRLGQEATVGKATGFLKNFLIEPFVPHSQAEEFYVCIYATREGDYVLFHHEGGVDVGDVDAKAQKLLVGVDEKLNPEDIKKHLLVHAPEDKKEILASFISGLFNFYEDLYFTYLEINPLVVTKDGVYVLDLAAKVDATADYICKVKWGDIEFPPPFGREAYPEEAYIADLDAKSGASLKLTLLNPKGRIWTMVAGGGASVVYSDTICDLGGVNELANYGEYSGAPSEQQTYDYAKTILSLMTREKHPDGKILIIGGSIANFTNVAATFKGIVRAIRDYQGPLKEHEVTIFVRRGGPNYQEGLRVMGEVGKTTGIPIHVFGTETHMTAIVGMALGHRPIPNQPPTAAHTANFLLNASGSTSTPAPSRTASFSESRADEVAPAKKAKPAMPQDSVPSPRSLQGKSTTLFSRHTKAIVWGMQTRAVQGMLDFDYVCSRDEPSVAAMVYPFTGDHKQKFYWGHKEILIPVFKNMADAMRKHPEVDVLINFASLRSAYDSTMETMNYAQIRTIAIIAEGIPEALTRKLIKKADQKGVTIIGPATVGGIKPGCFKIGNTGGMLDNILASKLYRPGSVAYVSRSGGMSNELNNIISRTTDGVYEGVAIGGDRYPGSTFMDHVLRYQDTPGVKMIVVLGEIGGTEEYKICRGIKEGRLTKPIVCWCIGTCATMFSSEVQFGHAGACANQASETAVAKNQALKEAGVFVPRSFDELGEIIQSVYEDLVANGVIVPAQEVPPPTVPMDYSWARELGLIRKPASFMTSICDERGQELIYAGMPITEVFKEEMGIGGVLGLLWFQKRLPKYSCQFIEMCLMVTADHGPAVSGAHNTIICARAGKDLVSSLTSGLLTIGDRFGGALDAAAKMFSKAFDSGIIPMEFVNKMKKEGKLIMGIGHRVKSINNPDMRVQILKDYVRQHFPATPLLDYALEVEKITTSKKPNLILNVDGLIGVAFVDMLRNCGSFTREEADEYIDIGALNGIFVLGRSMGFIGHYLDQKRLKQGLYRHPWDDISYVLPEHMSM

[6] = acute toxicity tests

| Compound | DNA damage and mutagenicity [1] | Body weight change with exercise ([2]; in combination with exercise, O-NBC at 400 micrograms chromium per day) | Body weight change without exercise ([2]; no exercise) | Decrease in body weight gain ([3]; 0.33 mmoles/kg twice daily) | Decrease in body weight gain ([3]; 2.63 mmoles/kg once daily) | Decrease in body weight gain ([3]; single daily administration) | Decrease in liver lipogenesis [4] | Mode of inhibition of ATP-citrate lyase [5] | Acute toxicity compared with citric acid [6] |
| --- | --- | --- | --- | --- | --- | --- | --- | --- | --- |
| chromium picolinate | damage DNA and be mutagenic | no change in weight | significant weight gain |  |  |  |  |  |  |
| O=C(O)CC(O)(C(=O)O)C(O)C(=O)O (single isomer, unassigned; (-)) [HCA, (−)-hydroxycitric acid] |  |  |  | significant | significant | no significant reductions | roughly 70% | competitive inhibitor | even safer than citric acid |
